In ChEMBL document CHEMBL1122585, “Synthesis of a novel class of heteroaromatic amino acids and their use in the preparation of analogues of luteinizing hormone-releasing hormone” (J Med Chem, 1984):

Assays:
[1] = Acid dissociation constant was determined; assay type: ADME
[2] = organism: Rattus norvegicus; assay: Antifertility effect in adult female rats by estrus suppression assay; assay type: functional

Row | pKa [1] | Compound | Potency [2]
1 | 4.7 | NC(Cc1nc2ccccc2[nH]1)C(=O)O (stereo not drawn) | 
2 | 7.5 | NC(Cc1nc2c([nH]1)CCCC2)C(=O)O (stereo not drawn) | 
3 |  | CC(C)C[C@H](NC(=O)[C@@H](Cc1nc2ccccc2o1)NC(=O)[C@H](Cc1ccc(O)cc1)NC(=O)[C@H](CO)NC(=O)[C@H](Cc1c[nH]c2ccccc12)NC(=O)[C@H](Cc1c[nH]cn1)NC(=O)[C@@H]1CCC(=O)N1)C(=O)N[C@@H](CCCN=C(N)N)C(=O)N1CCC[C@H]1C(=O)NCC(N)=O | 1.2
4 |  | CC(C)C[C@H](NC(=O)[C@@H](Cc1nc2cc(Cl)c(Cl)cc2[nH]1)NC(=O)[C@H](Cc1ccc(O)cc1)NC(=O)[C@H](CO)NC(=O)[C@H](Cc1c[nH]c2ccccc12)NC(=O)[C@H](Cc1c[nH]cn1)NC(=O)[C@@H]1CCC(=O)N1)C(=O)N[C@@H](CCCN=C(N)N)C(=O)N1CCC[C@H]1C(=O)NCC(N)=O | 0.9
5 | 3.4 | NC(Cc1nc2cc(Cl)c(Cl)cc2[nH]1)C(=O)O (stereo not drawn) | 
6 | 5.4 | Cc1cc2nc(CC(N)C(=O)O)[nH]c2cc1C (stereo not drawn) | 
7 |  | CCNC(=O)[C@@H]1CCCN1C(=O)[C@H](CCCN=C(N)N)NC(=O)[C@H](CC(C)C)NC(=O)[C@@H](Cc1nc2c(ccc3ccccc32)[nH]1)NC(=O)[C@H](Cc1ccc(O)cc1)NC(=O)[C@H](CO)NC(=O)[C@H](Cc1c[nH]c2ccccc12)NC(=O)[C@H](Cc1c[nH]cn1)NC(=O)[C@@H]1CCC(=O)N1 | 0.8
8 |  | CCNC(=O)[C@@H]1CCCN1C(=O)[C@H](CCCN=C(N)N)NC(=O)[C@H](CC(C)C)NC(=O)[C@@H](Cc1nc2ccccc2[nH]1)NC(=O)[C@H](Cc1ccc(O)cc1)NC(=O)[C@H](CO)NC(=O)[C@H](Cc1c[nH]c2ccccc12)NC(=O)[C@H](Cc1c[nH]cn1)NC(=O)[C@@H]1CCC(=O)N1 | 1
9 |  | CC(C)C[C@H](NC(=O)[C@@H](Cc1nc2ccccc2s1)NC(=O)[C@H](Cc1ccc(O)cc1)NC(=O)[C@H](CO)NC(=O)[C@H](Cc1c[nH]c2ccccc12)NC(=O)[C@H](Cc1c[nH]cn1)NC(=O)[C@@H]1CCC(=O)N1)C(=O)N[C@@H](CCCN=C(N)N)C(=O)N1CCC[C@H]1C(=O)NCC(N)=O | 1
10 |  | CCNC(=O)[C@@H]1CCCN1C(=O)[C@H](CCCN=C(N)N)NC(=O)[C@H](CC(C)C)NC(=O)[C@@H](Cc1nc2c([nH]1)CCCC2)NC(=O)[C@H](Cc1ccc(O)cc1)NC(=O)[C@H](CO)NC(=O)[C@H](Cc1c[nH]c2ccccc12)NC(=O)[C@H](Cc1c[nH]cn1)NC(=O)[C@@H]1CCC(=O)N1 | 1.4
11 |  | CC(C)C[C@H](NC(=O)[C@@H](Cc1nc2ccccc2[nH]1)NC(=O)[C@H](Cc1ccc(O)cc1)NC(=O)[C@H](CO)NC(=O)[C@H](Cc1c[nH]c2ccccc12)NC(=O)[C@H](Cc1c[nH]cn1)NC(=O)[C@@H]1CCC(=O)N1)C(=O)N[C@@H](CCCN=C(N)N)C(=O)N1CCC[C@H]1C(=O)NCC(N)=O | 0.3
12 |  | Cc1cc2nc(C[C@@H](NC(=O)[C@H](Cc3ccc(O)cc3)NC(=O)[C@H](CO)NC(=O)[C@H](Cc3c[nH]c4ccccc34)NC(=O)[C@H](Cc3c[nH]cn3)NC(=O)[C@@H]3CCC(=O)N3)C(=O)N[C@@H](CC(C)C)C(=O)N[C@@H](CCCN=C(N)N)C(=O)N3CCC[C@H]3C(=O)NCC(N)=O)[nH]c2cc1C | 1.6
13 |  | CC(C)C[C@H](NC(=O)[C@@H](Cc1nc2c([nH]1)CCCC2)NC(=O)[C@H](Cc1ccc(O)cc1)NC(=O)[C@H](CO)NC(=O)[C@H](Cc1c[nH]c2ccccc12)NC(=O)[C@H](Cc1c[nH]cn1)NC(=O)[C@@H]1CCC(=O)N1)C(=O)N[C@@H](CCCN=C(N)N)C(=O)N1CCC[C@H]1C(=O)NCC(N)=O | 0.6
